Assay results published in patent publication US4607047A, “N-(allyl-2-pyrrolidinylmethyl) 2-methoxy-4-amino-5-methylsulfamoyl benzamide anti platelets aggregation agent” (Societe d'Etudes Scientifiques et Industrielles de …, priority 1983, dated 1986).

Tests used:
[1] = tested on: platelets; experiment: platelet aggregation caused by adenosine phosphate; type: cell-based; details: in vitro, rabbits
Method: (§1) The following pharmacological results illustrate the activity of the compound on platelet aggregation, the potentiation of such aggregation, the uptake of serotonin (the chemical name for which is 5-hydroxytryptamine) by the platelets and the release reaction of such platelets. This study was carried out on rabbits:
An inhibiting effect on the aggregation of platelets, caused by adenosine phosphate is observed.

[2] = tested on: platelets; experiment: potentiation (induced by 5-hydroxytryptamine) of platelet aggregation caused by adenosinephosphate; type: cell-based, rabbits; details: rabbit platelets
Method: as §1
It is 63 times less powerful than METHYSERGIDE as a 5-hydroxytryptamine antagonist.

[3] = tested on: platelets; experiment: potentiation (induced by adrenaline) of platelet aggregation caused by adenosinephosphate; type: cell-based, rabbits; details: rabbit platelets
Method: as §1
It is 20 times less powerful than PHENTOLAMINE as an adrenaline antagonist.

[4] = target: T1, alpha-2 receptors (Oryctolagus cuniculus); experiment: potentiation (induced by CLONIDINE) of platelet aggregation caused by adenosinephosphate; type: cell-based, rabbits; details: rabbit platelets; read-out: IC50, anti-adrenergic effect (potentiation induced by CLONIDINE of platelet aggregation caused by adenosinephosphate)
T1 construct: potentiation (induced by CLONIDINE) of platelet aggregation caused by adenosinephosphate; endogenous in cells; host or cells: rabbit blood platelets
Source text: (§2) The following pharmacological results illustrate the activity of the compound on platelet aggregation, the potentiation of such aggregation, the uptake of serotonin (the chemical name for which is 5-hydroxytryptamine) by the platelets and the release reaction of such platelets.

[5] = target: T2, alpha-2 receptors (Oryctolagus cuniculus, UniProt Q5ZQK3); experiment: as above; type: cell-based, rabbits; details: rabbit platelets
T2 construct: potentiation (induced by CLONIDINE) of platelet aggregation caused by adenosinephosphate; endogenous in cells; host or cells: rabbit blood platelets
T2 sequence (Q5ZQK3 1-451): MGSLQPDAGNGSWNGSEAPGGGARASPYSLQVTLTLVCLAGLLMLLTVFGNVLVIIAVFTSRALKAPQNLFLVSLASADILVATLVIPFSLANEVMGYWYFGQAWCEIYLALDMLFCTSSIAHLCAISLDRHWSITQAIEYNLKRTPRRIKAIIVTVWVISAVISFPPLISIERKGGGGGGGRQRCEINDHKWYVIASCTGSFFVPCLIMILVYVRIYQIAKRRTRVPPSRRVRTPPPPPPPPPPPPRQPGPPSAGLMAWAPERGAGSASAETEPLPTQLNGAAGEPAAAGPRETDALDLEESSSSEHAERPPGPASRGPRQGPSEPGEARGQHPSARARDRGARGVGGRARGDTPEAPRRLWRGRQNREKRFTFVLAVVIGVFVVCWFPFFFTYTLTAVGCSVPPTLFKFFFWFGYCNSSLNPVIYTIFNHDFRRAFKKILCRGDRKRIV
Source text: as §2

[6] = tested on: platelets; experiment: uptake of carbon 14-marked 5-hydroxytryptamine by platelets; type: cell-based; details: Oryctolagus cuniculus, Platelet; rabbit platelets
Source text: as §2

[7] = tested on: platelets; experiment: platelet aggregation induced by collagen; type: cell-based, rabbits; details: rabbit platelets
Method: as §1
(§3) The compound counteracts the action of collagen on the platelets.
a. prolongation of the typical latency phase which precedes aggregation of the platelets induced by collagen,
b. inhibition of the aggregation effect induced by collagen, and […]

[8] = tested on: platelets; experiment: release of carbon 14-marked 5-hydroxytryptamine induced by collagen; type: cell-based, rabbits; details: rabbit platelets
Method: as §1, §3
The compound of the invention is 13 times more powerful than aspirin, which is well known for inhibiting the platelet release reaction.

[9] = tested on: rabbit platelets; experiment: release of carbon 14-marked 5-hydroxytryptamine induced by adrenaline; type: cell-based; details: Oryctolagus cuniculus, Platelet, read-out: IC50, inhibition of release of carbon 14-marked 5-hydroxytryptamine induced by adrenaline
Source text: as §2

[10] = tested on: human platelets; experiment: aggregation induced by thrombin, human platelets in vitro; type: cell-based; details: thrombin 3.3 units/ml PRP
Method: (§4) All those results agreeing, the following study was carried on human platelets in vitro, before proceeding to therapeutic applications. It relates to the effects of the compound according to the invention, in regard to aggregation induced by thrombin, collagen, adrenaline, and 5-hydroxytryptamine, and with regard to the release of carbon 14-marked 5-hydroxytryptamine, by thrombin, adrenaline and collagen.

[11] = tested on: human platelets; experiment: aggregation induced by collagen, human platelets in vitro; type: cell-based
Method: as §4

[12] = tested on: human platelets; experiment: aggregation induced by adrenaline, human platelets in vitro; type: cell-based
Method: as §4

[13] = tested on: human platelets; experiment: aggregation induced by 5-hydroxytryptamine, human platelets in vitro; type: cell-based
Method: as §4

[14] = tested on: human platelets; experiment: uptake of carbon 14-marked 5-hydroxytryptamine, human platelets in vitro; type: cell-based
[15] = tested on: human platelets; experiment: release of carbon 14-marked 5-hydroxytryptamine induced by thrombin, human platelets; type: cell-based; details: human platelets in vitro
Method: as §4

[16] = tested on: human platelets; experiment: release of marked 5-hydroxytryptamine induced by collagen, human platelets; type: cell-based; details: human platelets in vitro
Method: as §4

[17] = tested on: human platelets; experiment: platelet release reaction induced by adrenaline, human platelets; type: cell-based; details: human platelets in vitro; witnessed by inhibition of second phase of aggregation
Method: as §4

[18] = tested on: vascular thrombus; experiment: in vivo formation of a caused vascular thrombus; details: animals
[19] = tested on: central dopaminergic receptors; experiment: action on central dopaminergic receptors; apomorphine climbing and stereotypies; type: in vivo, rodents
Source text: Although under those conditions the pathogenetic role of platelet dysfunction has not been definitively established, various medicaments which are assumed to act by interfering with the platelet function have been widely used. Reference may be made for example to aspirin, dipyridamole and sulphinpyrazone. […] It can be said therefore that the undesirable neurological effects are very limited with that medicament.

With `C=CCN1CCCC1CNC(=O)c1cc(S(=O)(=O)NC)c(N)cc1OC` (stereo not shown) [the compound, N-(1-allyl-2-pyrrolidinylmethyl) 2-methoxy 4-amino 5-methylsulphamoyl benzamide] the “platelet aggregation caused by adenosine phosphate” value [1] was “inhibits”, the IC50 ([2]; Oryctolagus cuniculus, Platelet, read-out: IC50, inhibition of potentiation (induced by 5-hydroxytryptamine) of platelet aggregation caused by adenosinephosphate) was 19 µM and the “times less powerful than METHYSERGIDE as a 5-hydroxytryptamine antagonist” value [2] was 63 times. The IC50 ([3]; Oryctolagus cuniculus, Platelet, read-out: IC50, inhibition of potentiation (induced by adrenaline) of platelet aggregation caused by adenosinephosphate) was 10 µM, the “times less powerful than PHENTOLAMINE as an adrenaline antagonist” value [3] was 20 times and the IC50 [4] was 29.5 µM. For the same molecule, the “activity relative to MIANSERINE as an alpha-2 antagonist” value [5] was “twice as active”, the IC50 [6] was greater than 100 µM and the “aggregation effect induced by collagen” value [7] was “inhibition”. The “latency phase preceding aggregation of platelets induced by collagen” value [7] was “prolongation”, the IC50 ([8]; Oryctolagus cuniculus, Platelet, read-out: IC50, inhibition of release of carbon 14-marked 5-hydroxytryptamine induced by collagen) was 1.8 µM and the “times more powerful than aspirin, platelet release reaction” value ([8]; collagen-induced release) was 13 times. For the same molecule, the IC50 [9] was 100 µM, the “primary aggregation of platelets induced by thrombin” value [10] was “does not influence” and the “second phase of aggregation induced by thrombin” value [10] was “inhibits”. The “aggregation of platelets induced by collagen” value [11] was “inhibits”, the “first and second phases of aggregation of platelets induced by adrenaline” value [12] was “inhibits both” and the “aggregation of platelets induced by 5-hydroxytryptamine” value [13] was “inhibits”. For the same molecule, the “uptake of carbon 14-marked 5-hydroxytryptamine by platelets” value [14] was “does not influence”, the “release of carbon 14-marked 5-hydroxytryptamine induced by thrombin” value [15] was “inhibits” and the “release of marked 5-hydroxytryptamine induced by collagen” value [16] was “inhibits”. For the same molecule, the “release reaction of the platelets induced by adrenaline” value [17] was “inhibits”, the “conditions of formation of a caused vascular thrombus (anti-aggregating effect)” value [18] was “modifies the conditions of formation” and the “action on the central dopaminergic receptors” value ([19]; animals) was “only a very weak action”. For the same molecule, the “doses to counteract apomorphine effects (climbing and stereotypies)” value ([19]; rodents) was “high doses are required”.
